Measured values reported in ChEMBL document CHEMBL5244245, “Medicinal chemistry insights into novel CDC25 inhibitors” (Eur J Med Chem, 2020).

Experiments:
[1] = target: T1, M-phase inducer phosphatase 1 (Homo sapiens, UniProt P30304); experiment: Inhibition of CDC25A (unknown origin)
T1 sequence (P30304 whole entry): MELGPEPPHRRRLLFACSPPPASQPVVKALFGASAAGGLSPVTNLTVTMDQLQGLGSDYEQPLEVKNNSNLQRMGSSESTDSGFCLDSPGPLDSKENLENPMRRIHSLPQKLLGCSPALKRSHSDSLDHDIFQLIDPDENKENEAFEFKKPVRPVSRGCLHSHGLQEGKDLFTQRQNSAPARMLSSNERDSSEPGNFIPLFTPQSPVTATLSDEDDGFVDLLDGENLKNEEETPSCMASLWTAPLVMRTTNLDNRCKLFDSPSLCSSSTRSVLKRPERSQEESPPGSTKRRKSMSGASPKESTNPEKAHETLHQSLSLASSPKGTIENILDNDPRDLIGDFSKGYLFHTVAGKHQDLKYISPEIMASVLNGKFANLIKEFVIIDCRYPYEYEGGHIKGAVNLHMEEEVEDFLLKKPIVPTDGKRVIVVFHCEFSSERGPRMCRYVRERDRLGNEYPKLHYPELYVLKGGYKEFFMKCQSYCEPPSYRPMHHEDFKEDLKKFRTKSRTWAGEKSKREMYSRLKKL

[2] = target: T2, M-phase inducer phosphatase 3 (Homo sapiens, UniProt P30307); experiment: Inhibition of CDC25C (unknown origin)
T2 sequence (P30307 whole entry): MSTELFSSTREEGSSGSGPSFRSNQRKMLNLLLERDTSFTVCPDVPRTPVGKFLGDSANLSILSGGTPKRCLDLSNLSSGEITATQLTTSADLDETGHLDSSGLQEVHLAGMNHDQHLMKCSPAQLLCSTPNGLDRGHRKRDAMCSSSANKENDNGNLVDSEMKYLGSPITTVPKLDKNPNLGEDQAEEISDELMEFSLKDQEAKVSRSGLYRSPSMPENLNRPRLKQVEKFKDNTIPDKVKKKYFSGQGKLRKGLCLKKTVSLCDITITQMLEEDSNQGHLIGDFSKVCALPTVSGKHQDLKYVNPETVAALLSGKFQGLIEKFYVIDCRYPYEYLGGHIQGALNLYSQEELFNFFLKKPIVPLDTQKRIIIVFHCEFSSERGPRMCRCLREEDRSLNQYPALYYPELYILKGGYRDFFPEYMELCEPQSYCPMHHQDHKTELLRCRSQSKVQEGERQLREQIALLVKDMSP

[3] = target: T3, M-phase inducer phosphatase 2 (Homo sapiens, UniProt P30305); experiment: Inhibition of human CDC25B
T3 sequence (P30305 whole entry): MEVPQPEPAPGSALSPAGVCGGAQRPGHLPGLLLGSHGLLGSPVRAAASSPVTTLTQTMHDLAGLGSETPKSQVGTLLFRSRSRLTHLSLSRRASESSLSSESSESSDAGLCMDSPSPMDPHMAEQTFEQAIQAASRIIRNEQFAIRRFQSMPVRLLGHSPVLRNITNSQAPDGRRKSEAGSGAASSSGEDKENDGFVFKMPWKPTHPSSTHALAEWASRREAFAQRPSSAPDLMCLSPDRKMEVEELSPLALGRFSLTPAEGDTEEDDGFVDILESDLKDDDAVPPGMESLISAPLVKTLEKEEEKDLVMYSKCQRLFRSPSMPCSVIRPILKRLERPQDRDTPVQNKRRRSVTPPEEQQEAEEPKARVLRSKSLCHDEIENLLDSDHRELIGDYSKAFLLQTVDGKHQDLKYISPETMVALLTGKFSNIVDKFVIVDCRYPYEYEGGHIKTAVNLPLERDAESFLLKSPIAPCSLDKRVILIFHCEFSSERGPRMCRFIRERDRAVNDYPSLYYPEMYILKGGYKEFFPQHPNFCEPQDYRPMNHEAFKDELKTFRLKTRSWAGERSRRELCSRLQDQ

[4] = target: T1, M-phase inducer phosphatase 1; experiment: Inhibition of recombinant CDC25A (unknown origin)
[5] = target: T2, M-phase inducer phosphatase 3; experiment: Inhibition of recombinant CDC25C (unknown origin)
[6] = target: T3, M-phase inducer phosphatase 2; experiment: Inhibition of recombinant CDC25B (unknown origin)
[7] = target: T3, M-phase inducer phosphatase 2; experiment: Inhibition of CDC25B (unknown origin)
HeLa = experiment: Cytotoxicity against human HeLa cells assessed as inhibition of cell growth incubated for 48 hrs by MTT assay; format: functional, cell-based
[8] = target: T1, M-phase inducer phosphatase 1; experiment: Inhibition of CDC25A (unknown origin) using fluorescein diphosphate as substrate
[9] = Antitumor activity against human RPMI cells; format: functional, cell-based
[10] = target: T2, M-phase inducer phosphatase 3; experiment: Inhibition of recombinant N-terminal GST-tagged CDC25C (unknown origin) expressed in Escherichia coli BL21 (DE3) cells incubated for 2 hrs
[11] = target: T3, M-phase inducer phosphatase 2; experiment: Inhibition of recombinant N-terminal GST-tagged CDC25B (unknown origin) expressed in Escherichia coli BL21 (DE3) cells incubated for 2 hrs
[12] = target: T1, M-phase inducer phosphatase 1; experiment: Inhibition of recombinant N-terminal GST-tagged CDC25A (unknown origin) expressed in Escherichia coli BL21 (DE3) cells incubated for 2 hrs
[13] = target: T1, M-phase inducer phosphatase 1; experiment: Inhibition of N-terminal FLAG-tagged wild type CDC25A (331 to 524 residues) (unknown origin) expressed in Escherichia coli BL21 (DE3) cells incubated for 45 mins
[14] = target: T3, M-phase inducer phosphatase 2; experiment: Inhibition of recombinant N-terminal GST-tagged CDC25B (372 to 551 residues) (unknown origin) expressed in Escherichia coli BL21 (DE3) cells incubated for 45 mins
[15] = target: T3, M-phase inducer phosphatase 2; experiment: Inhibition of human recombinant CDC25B
[16] = target: T1, M-phase inducer phosphatase 1; experiment: Inhibition of human CDC25A
[17] = target: T2, M-phase inducer phosphatase 3; experiment: Inhibition of human CDC25C
HCT-116 = experiment: Antitumor activity against human HCT-116 cells; format: functional, cell-based

Compound: CC(C)n1c2c(=O)c(-c3ccco3)cc(=O)c2c2c(=O)c3ccccc3c21
- IC50 [1]: 1.68 µM
- IC50 [2]: 1.72 µM

Compound: CCOC(=O)c1ccc(N2C(=O)/C(=C\c3cccc(C)c3)SC2c2ccccc2)cc1 (stereo not drawn)
- IC50 [3]: 39 µM

Compound: Cc1nc2c(s1)C(=O)C=C(NCCN(C)C)C2=O
- IC50 [4]: 0.023 µM
- IC50 [5]: 0.023 µM
- IC50 [6]: 0.053 µM

Compound: CCCCCCCCCCCC/C=C/[C@]12C(=O)O[C@]3(C)O[C@]4(C)OC(=O)C(=C[C@H]1CCCCCCCCCCCC)C4C32 (single isomer, unassigned)
- IC50 [7]: 6.44 µM

Compound: CCCc1cc(O)nc(SCC(=O)NCCSCc2ccco2)n1
- IC50 (HeLa): 66.3 µM
- IC50 [8]: 7.9 µM

Compound: CCCCOc1cc2c(c3c(=O)oc4ccccc4c13)C(=O)C=CC2=O
- IC50 [7]: 46.1 µM
- IC50 [1]: 13.2 µM
- IC50 [2]: 9 µM

Compound: CC(C)n1c2c(=O)c(-c3ccccc3)cc(=O)c2c2c(=O)c3ccccc3c21
- IC50 [1]: 2.01 µM
- IC50 [2]: 2 µM

Compound: CCNC1=C(F)C(=O)c2c(F)c(F)c(F)c(F)c2C1=O
- IC50 [9]: 0.7 µM

Compound: COc1ccc2c(CSC3=CC(=O)c4ccccc4C3=O)cc(=O)oc2c1
- IC50 [10]: 0.9 µM
- IC50 [11]: 9.1 µM
- IC50 [12]: 4.3 µM

Compound: Cc1cc(=O)c2c(c1=O)c1c(=O)c3ccccc3c1n2C(C)C
- IC50 [1]: 2 µM
- IC50 [2]: 2.51 µM

Compound: N#Cc1c(F)cc(O)cc1SCCS(=O)(=O)O
- IC50 [13]: 2200 µM
- IC50 [14]: 1000 µM

Compound: CCOC(=O)C1=C(C)N=c2s/c(=C\c3cc(Br)c(O)c(Br)c3)c(=O)n2C1c1ccc2c(c1)OCO2 (stereo not drawn)
- IC50 [15]: 4.5 µM

Compound: CN(C)CCNC1=CC(=O)c2nc(-c3cc(F)ccc3F)oc2C1=O
- IC50 [4]: 0.023 µM
- IC50 [5]: 0.023 µM
- IC50 [6]: 0.053 µM

Compound: C[C@@H](C[C@@H](O)C(C)(C)C=O)[C@@H]1CC[C@]2(C)C3=CC[C@H]4C(C)(C)C(=O)CC[C@]4(C)[C@H]3CC[C@@]12C
- IC50 [7]: 2.1 µM

Compound: CCOC(=O)C1=C(C)N=c2s/c(=C\c3ccc(-n4cc(CNC(=O)Nc5sccc5C(=O)O)nn4)cc3)c(=O)n2C1c1ccccc1 (stereo not drawn)
- IC50 [7]: 3 µM

Compound: CCSC1=C(C)C(=O)c2ccccc2C1=O
- IC50 [7]: 4.7 µM
- IC50 [1]: 5.5 µM

Compound: O=C(O)c1ccc(NC2=C(Cl)C(=O)c3ccccc3C2=O)cc1
- IC50 [3]: 11.1 µM
- IC50 [16]: 3.19 µM
- IC50 [17]: 5.41 µM

Compound: CC(C)=CCOc1ccc(C(=O)/C=C/c2ccc(Cl)cc2)c(O)c1
- IC50 (HCT-116): 0.89 µM

Compound: O=C1C(F)=C(Nc2ccccc2)C(=O)c2c(F)c(F)c(F)c(F)c21
- IC50 [9]: 0.8 µM

Compound: COC1=CC(=O)C=C([S@@+]([O-])c2ccc(C)cc2)C1=O
- IC50 [3]: 6.99 µM
- IC50 [16]: 2.6 µM
- IC50 [17]: 5.72 µM

Compound: CC(C)n1c2c(=O)c(-c3ccc(F)cc3)cc(=O)c2c2c(=O)c3ccccc3c21
- IC50 [1]: 2.73 µM
- IC50 [2]: 2.55 µM

Compound: O=C(O)C1CCCCC1c1c2ccc(=O)cc-2oc2cc(O)ccc12 (stereo not drawn)
- IC50 [7]: 0.78 µM
- IC50 [1]: 0.65 µM
- IC50 [2]: 3.5 µM
